T1: Brainiac β1-3-N-acetylglucosaminyltransferase (Drosophila melanogaster, UniProt Q24157)
T1 construct: The full coding region of Brainiac was prepared by PCR using genomic DNA; made in house; host or cells: High Five insect cells (baculovirus vector pVL1393); microsomal fractions
T1 sequence (Q24157 1-325): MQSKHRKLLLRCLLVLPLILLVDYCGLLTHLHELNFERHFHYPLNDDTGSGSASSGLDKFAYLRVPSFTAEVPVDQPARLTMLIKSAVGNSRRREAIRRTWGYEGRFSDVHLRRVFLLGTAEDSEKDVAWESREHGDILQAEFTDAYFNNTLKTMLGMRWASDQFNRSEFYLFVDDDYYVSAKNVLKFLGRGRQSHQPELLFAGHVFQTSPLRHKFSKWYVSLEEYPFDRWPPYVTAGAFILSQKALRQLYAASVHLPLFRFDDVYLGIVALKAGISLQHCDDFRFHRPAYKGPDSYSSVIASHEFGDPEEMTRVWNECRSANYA

T2: Brainiac (Drosophila melanogaster, UniProt Q24157)
T2 construct: The full coding region of Brainiac was prepared by PCR using genomic DNA; made in house; host or cells: High Five insect cells (baculovirus vector pVL1393); microsomal fractions
T2 sequence (Q24157 1-325): T1 sequence (Q24157 1-325)

T3: Fringe (Drosophila melanogaster, UniProt Q24342)
T3 construct: made in house; host or cells: High Five insect cells (baculovirus vector pVL1393); solubilised microsomal fractions
T3 sequence (Q24342 1-412): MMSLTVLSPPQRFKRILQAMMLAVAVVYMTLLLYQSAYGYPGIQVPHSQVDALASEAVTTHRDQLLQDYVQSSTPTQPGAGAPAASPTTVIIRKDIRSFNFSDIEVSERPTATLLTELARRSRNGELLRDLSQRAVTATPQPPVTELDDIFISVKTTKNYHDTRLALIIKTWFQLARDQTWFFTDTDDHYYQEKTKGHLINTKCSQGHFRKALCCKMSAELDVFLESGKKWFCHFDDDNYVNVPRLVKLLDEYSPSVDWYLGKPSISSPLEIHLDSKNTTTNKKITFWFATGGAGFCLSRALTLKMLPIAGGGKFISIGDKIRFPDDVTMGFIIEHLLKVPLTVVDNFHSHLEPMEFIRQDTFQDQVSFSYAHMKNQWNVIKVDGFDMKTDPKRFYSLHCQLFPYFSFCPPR

B1: Fringe: Drosophila Fringe protein with a single C-terminal myc-epitope tag (protein, UniProt Q24342 1-412, looked up)
Fringe glycosyltransferase: T3 sequence (Q24342 1-412)
modifications: C-terminal myc tag

Legend:
[1] = target: T1, Brainiac β1-3-N-acetylglucosaminyltransferase; assay: Substrate specificities of Brainiac β1-3-N-acetylglucosaminyltransferase (acceptor panel, microsomal preparations); format: biochemical; details: microsomes of pVL-Brainiac infected High Five cells, background of irrelevant construct subtracted, donor UDP-GlcNAc
[2] = target: T2, Brainiac; assay: Initial analysis of Brainiac glycosyltransferase activity with monosaccharides and four UDP sugar nucleotides; format: biochemical; details: panel of monosaccharides, donor UDP-GlcNAc, High Five cell microsomes
Procedure: Brainiac-full was cloned into baculovirus vector pVL1393 (Pharmingen) and expressed in High Five cells. Microsomal fractions were prepared as described above for Fringe but with 0.5% N-octylglucoside as Triton X-100 and related detergents destroyed the activity. Initial analysis of activity was done with five monosaccharides and four donor sugar nucleotides as described in FIG. 5 for Fringe. Assays with the acceptors listed in Table 1 were performed as described for Fringe except no additional detergent was added. Reactions with glycolipid substrates were performed in the presence of 0.5% N-octylglucoside in 50 ul reaction volume containing 10 μg glycolipid.
In the latter case the acceptor sugar was not determined.

[3] = target: T3, Fringe; assay: Fringe glycosyltransferase assay, transfer of 14C-labelled UDP-donor sugars onto acceptor sugars; format: biochemical; details: for Acceptor for Fringe, in words: microsomal fractions of High Five cells
Procedure: Fringe-Myc and Fringe-NNN-myc were cloned into baculovirus vector pVL1393 (Pharmingen) and expressed in High Five™ cells. Microsomal fractions were prepared by hypotonic lysis ultracentrifugation and solubilised 1:2 (vol/vol) in 20 mM Cacodylate pH 6.5, 1% Triton-CF54, 5 MM MnCl2 containing Leupeptin and Aprotinin as described previously (Amado et al., 1998). For glycosyltransferase assays, 5 μl of this suspension were added to a total of 50 μl reaction mixture containing 25 mM Cacodylate pH 6.5, 0.25% Triton-CF54, 5 mM MnCl2, 500 mM free sugar, 100 μM UDP-^14C-sugar (1280-2000 cpm/nmol). Reactions were incubated at 37° C. for 45-60 minutes, followed by Dowex-1 anion exchange chromatography and scintillation counting of 50% of the flow-through.
To ask whether Fringe has intrinsic glycosyltransferase activity, Fringe-wt and Fring-NNN were produced by baculovirus-infection of insect cells. Microsomal fractions enriched for Golgi membranes were partially solubilized and assayed for the ability to the expressed proteins to catalyze the transfer of ^14C-labelled UDP-donor sugars onto acceptor sugars. A variety of different donor/acceptor combinations were tested (FIG. 5b).
Enzyme activity was measured by transfer of ^14C-labelled donor sugars (as UDP-conjugates) onto acceptor sugars. In FIG. 5b, average results from two experiments are shown. Donors tested were UDP-Glucose (Glc), UDP-Galactose (Gal), UDP-N-acetyl-Glucosamine (GlcNAc) and N-acetyl-Galactosamine (GalNAc). Acceptors tested were Glucose, Galactose, GlcNAc, GalNAc and Fucose.

[4] = target: T4, Notch (Drosophila melanogaster, UniProt P07207); assay: Delta-AP binding to Notch transfected S2 cells; format: cell-based
T4 construct: expressed in transfected cells; host or cells: Drosophila Schneider S2 cells, transient transfection, pRmHa3
T4 sequence (P07207 53-2703): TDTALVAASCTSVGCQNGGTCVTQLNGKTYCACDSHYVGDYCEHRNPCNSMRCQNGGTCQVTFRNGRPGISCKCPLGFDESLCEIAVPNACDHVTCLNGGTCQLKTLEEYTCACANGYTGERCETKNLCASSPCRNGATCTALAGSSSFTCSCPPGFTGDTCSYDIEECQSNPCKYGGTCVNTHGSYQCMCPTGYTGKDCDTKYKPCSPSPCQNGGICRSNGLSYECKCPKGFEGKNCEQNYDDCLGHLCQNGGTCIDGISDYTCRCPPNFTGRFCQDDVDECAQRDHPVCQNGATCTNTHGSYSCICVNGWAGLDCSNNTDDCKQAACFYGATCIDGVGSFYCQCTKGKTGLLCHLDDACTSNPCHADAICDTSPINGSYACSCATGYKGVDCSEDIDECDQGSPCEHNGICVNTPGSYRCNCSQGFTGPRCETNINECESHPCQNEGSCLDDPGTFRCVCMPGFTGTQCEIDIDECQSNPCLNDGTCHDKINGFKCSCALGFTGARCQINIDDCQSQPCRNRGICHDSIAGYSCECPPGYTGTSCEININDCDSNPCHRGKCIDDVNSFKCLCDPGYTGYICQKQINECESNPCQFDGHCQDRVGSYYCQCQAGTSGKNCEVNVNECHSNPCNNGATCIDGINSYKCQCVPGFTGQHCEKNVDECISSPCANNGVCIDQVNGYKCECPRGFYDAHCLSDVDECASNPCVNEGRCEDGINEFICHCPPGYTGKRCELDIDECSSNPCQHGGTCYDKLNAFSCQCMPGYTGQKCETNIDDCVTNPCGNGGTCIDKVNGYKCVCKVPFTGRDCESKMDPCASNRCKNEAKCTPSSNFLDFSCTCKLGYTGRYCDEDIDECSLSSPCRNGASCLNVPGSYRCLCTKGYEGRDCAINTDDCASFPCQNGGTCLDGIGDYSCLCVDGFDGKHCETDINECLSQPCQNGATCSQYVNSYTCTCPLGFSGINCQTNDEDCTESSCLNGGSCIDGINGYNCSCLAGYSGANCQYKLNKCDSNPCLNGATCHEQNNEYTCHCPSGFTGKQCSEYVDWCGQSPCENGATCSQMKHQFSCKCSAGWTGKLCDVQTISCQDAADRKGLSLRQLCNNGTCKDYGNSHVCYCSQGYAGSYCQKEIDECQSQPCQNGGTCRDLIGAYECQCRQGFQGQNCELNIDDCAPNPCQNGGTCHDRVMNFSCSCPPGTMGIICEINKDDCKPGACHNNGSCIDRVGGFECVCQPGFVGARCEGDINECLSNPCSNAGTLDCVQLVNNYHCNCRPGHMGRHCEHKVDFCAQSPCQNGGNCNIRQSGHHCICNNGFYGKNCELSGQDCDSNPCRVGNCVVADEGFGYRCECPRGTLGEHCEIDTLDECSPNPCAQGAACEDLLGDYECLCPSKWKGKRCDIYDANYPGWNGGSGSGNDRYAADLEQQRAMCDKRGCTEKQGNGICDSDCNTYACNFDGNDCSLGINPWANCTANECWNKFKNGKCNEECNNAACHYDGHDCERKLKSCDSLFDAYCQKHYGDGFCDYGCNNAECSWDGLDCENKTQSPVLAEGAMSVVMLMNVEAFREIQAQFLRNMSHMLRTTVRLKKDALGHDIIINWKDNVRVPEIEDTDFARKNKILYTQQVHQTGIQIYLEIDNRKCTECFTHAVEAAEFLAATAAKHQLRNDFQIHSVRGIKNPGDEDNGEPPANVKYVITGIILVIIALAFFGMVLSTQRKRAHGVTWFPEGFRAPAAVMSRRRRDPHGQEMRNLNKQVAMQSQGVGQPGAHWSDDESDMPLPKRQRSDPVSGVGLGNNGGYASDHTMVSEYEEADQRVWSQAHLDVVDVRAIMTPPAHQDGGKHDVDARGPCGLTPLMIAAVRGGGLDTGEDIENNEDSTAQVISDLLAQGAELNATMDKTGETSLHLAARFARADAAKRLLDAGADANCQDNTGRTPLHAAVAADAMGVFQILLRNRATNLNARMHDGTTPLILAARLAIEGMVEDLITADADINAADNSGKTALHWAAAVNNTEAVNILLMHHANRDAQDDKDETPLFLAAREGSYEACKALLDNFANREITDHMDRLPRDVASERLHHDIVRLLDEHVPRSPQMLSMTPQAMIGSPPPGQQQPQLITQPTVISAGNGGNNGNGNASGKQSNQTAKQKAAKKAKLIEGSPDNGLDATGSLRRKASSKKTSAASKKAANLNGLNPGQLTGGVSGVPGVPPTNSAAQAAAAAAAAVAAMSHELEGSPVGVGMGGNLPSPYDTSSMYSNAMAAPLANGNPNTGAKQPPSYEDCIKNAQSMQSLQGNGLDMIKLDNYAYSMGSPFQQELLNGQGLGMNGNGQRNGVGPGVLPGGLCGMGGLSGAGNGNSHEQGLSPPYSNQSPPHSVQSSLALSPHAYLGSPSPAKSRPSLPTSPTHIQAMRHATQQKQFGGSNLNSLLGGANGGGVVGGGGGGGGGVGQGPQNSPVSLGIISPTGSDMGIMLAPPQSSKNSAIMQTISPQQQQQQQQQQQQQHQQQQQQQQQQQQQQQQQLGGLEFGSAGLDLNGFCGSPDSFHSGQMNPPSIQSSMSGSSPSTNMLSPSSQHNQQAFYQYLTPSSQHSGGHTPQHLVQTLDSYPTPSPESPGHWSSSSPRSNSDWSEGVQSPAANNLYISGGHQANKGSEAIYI
Procedure: Cell culture and Binding assays: cDNAs for expression in Schneider S2 cells were cloned into pRmHa3. Cells were transiently transfected by the CaPO4 method using 6-8 μg of DNA per well in 6 well plates. Expression was induced by addition of 0.7 mM CuSO4 for 2 days. Conditioned medium was collected from Notch-AP and Delta-AP transfected cells 2 days after induction. AP activity was adjusted to normalise activity levels of Notch-AP or Delta-AP expressed with or without Fringe. Binding was performed as described in Cheng and Flanagan, 1994. In brief, AP-containing supernatants were supplemented with 0.1% NaN3, and incubated 90 min at room temperature. Cells were washed 5 times in HBSS containing 0.05% BSA and 0.1% azide, and lysed in 10 mM Tris pH 8, 1% Triton-X100. Endogenous AP was inactivated by heat treatment for 10 min 60° C. and the lysates clarified by centrifugation. AP activity was measured in 1M Diethanolamine, 1 mM MgCl2, 5 mM para-nitrophenyl phosphate. Bound AP activity was quantified in 96 well plates using a microplate reader and Micromanager software (BioRad). An additional replicate of each transfection was prepared for immunoblot analysis. Lysates were prepared separately for Immunoblot analysis to allow inclusion of protease inhibitors which are not used in the binding assay. To measure interaction of Delta-AP with transiently transfected S2 cells, bound AP activity was quantified in an enzymatic colour reaction. Cells transfected with empty vector were used as a control. […] AP activity is shown in mOD units/minute in cell extracts (replicate experiments are shown in this figure). In this experiment Fringe stimulated binding by over 50 fold. […] However, the assay allows measurement of Fringe-dependent stimulation of Delta-AP binding.

Molecule | Brainiac activity with substrate ([1]; substrate 2 mM) | Brainiac activity with substrate ([1]; substrate 20 mM) | also measured
OC[C@H]1OC(O)[C@@H](O)[C@@H](O)[C@@H]1O (stereo partly drawn) [D-Man] | 0.28 nmol/h/mg | 1.70 nmol/h/mg | Acceptor for Brainiac, in words (initial analysis) [2]: best acceptor
C[C@@H]1O[C@@H](Oc2ccc([N+](=O)[O-])cc2)[C@@H](O)[C@H](O)[C@@H]1O [L-Fucα1-pNph] | 0.02 nmol/h/mg | 0.03 nmol/h/mg | Acceptor for Fringe, in words [3]: did not act as acceptors
C[C@@H]1O[C@H](Sc2ccc([N+](=O)[O-])cc2)[C@@H](O)[C@H](O)[C@@H]1O [β-L-Fuc-1-thio-p-Nph] | – | – | Acceptor for Fringe, in words [3]: did not act as acceptors
C[C@H](O)[C@@H](O)[C@@H](O)[C@H](O)C=O [Fucose] | – | – | Glycosyltransferase activity of Fringe-wt microsome lysate over background level observed with Fringe-NNN ([3]; donor UDP-N-acetylglucosamine (GlcNAc), average of two experiments, FIG. 5b): 18 fold
CO[C@H]1O[C@H](CO)[C@@H](O)[C@H](O[C@H]2O[C@H](CO)[C@@H](O)[C@H](O)[C@@H]2O)[C@@H]1O [Manα1-3Manα1-Me] | 0.00 nmol/h/mg | 0.00 nmol/h/mg | –
COC1OC(CO)C(O)C(O)C1O (centres unmarked) [Manα1 -Me] | 0.36 nmol/h/mg | 0.61 nmol/h/mg | –
Cc1cc(=O)oc2cc(O[C@H]3O[C@H](C)[C@H](O)[C@H](O)[C@H]3O)ccc12 [D-Fucα1-MeUmb] | 0.00 nmol/h/mg | 0.00 nmol/h/mg | –
OC[C@H]1O[C@@H](O[C@@H]2[C@H](O)[C@@H](O)C(O)O[C@@H]2CO)[C@H](O)[C@@H](O)[C@H]1O (some centres unmarked) [Galβ1-4Gal] | 0.00 nmol/h/mg | 0.00 nmol/h/mg | –
CC(=O)N[C@H]1[C@H](O[C@H]2[C@@H](O)[C@@H](CO)O[C@@H](O[C@H]3[C@H](O)[C@@H](O)C(O)O[C@@H]3CO)[C@@H]2O)O[C@H](CO)[C@@H](O)[C@@H]1O[C@@H]1O[C@H](CO)[C@H](O)[C@H](O)[C@H]1O (some centres unmarked) [lacto-N-tetraose] | 0.00 nmol/h/mg | 0.00 nmol/h/mg | –
CC(=O)N[C@@H]1C(O)O[C@H](CO)[C@@H](O[C@@H]2O[C@H](CO)[C@H](O)[C@H](O)[C@H]2O)[C@@H]1O (some centres unmarked) [Galβ1-4ManNAc] | 0.10 nmol/h/mg | 0.42 nmol/h/mg | –
CC(=O)N[C@H]1[C@H](OCc2ccccc2)O[C@H](CO)[C@@H](O[C@@H]2O[C@H](CO)[C@H](O)[C@H](O)[C@H]2O)[C@@H]1O [Galβ1-4GlcNAcβ1-Bzl] | 0.04 nmol/h/mg | 0.02 nmol/h/mg | –
C[C@H]1OC(O)[C@H](O)[C@@H](O)[C@H]1O (stereo partly drawn) [D-Fuc] | 0.01 nmol/h/mg | 0.01 nmol/h/mg | –
OC[C@H]1O[C@@H](O[C@H]2[C@H](O)[C@H](O)C(O)O[C@@H]2CO)[C@H](O)[C@@H](O)[C@H]1O (some centres unmarked) [Galβ1-4Man] | 1.48 nmol/h/mg | 8.39 nmol/h/mg | –
C[C@@H]1OC(O)[C@@H](O)[C@H](O)[C@@H]1O (stereo partly drawn) [L-Fuc] | 0.00 nmol/h/mg | 0.05 nmol/h/mg | Acceptor for Brainiac, in words (initial analysis) [2]: poor substrate
B1 | – | – | Delta-AP binding, in words ([4]; Notch-expressing cells co-cultured with Fringe-expressing cells for two days (secreted Fringe)): Delta-AP bound at background level; Effect on Delta-AP binding, in words ([4]; co-expressed with Notch in S2 cells): large increase in Delta-AP binding; Stimulation of Delta-AP binding ([4]; co-expressed with Notch in S2 cells, FIG. 3b): over 50 fold

Reference: US20030153056A1, “Glycosyltransferase proteins” (priority 2000, published 2003)
